Read-outs that look alike come from different tables or passages of the source.
Columns and labels:
human 5-HT1A receptors = target: T1, human 5-HT1A receptors (Homo sapiens, UniProt P08908); test: [3H] 8-OH-DPAT displacement from the 5-HT1A serotonin receptor (CHO cells); type: binding; conditions: for inhibition at 1 µM: @ 1000 nM, printed in the 5-HT1A Ki column
T1 construct: expressed in transfected cells; host or cells: CHO cells
T1 sequence (P08908 1-422): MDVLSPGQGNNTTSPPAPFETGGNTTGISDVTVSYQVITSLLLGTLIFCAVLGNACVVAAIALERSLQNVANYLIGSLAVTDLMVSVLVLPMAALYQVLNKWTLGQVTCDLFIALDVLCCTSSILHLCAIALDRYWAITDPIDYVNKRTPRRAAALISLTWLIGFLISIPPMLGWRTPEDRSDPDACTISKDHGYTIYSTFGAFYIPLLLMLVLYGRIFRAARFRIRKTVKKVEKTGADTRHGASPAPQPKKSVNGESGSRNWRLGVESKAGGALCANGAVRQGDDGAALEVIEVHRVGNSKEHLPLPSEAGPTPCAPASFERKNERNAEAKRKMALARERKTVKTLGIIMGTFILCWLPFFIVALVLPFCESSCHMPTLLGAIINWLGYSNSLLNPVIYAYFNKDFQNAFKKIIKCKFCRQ
Source text: High affinity for the serotonin 5-HT1A receptor was established by testing the claimed compound's ability to displace [^3H] 8-OH-DPAT (dipropylaminotetralin) from the 5-HT1A serotonin receptor following a modification of the procedure of Hall et al., J. Neurochem. 44, 1685 (1985) which utilizes CHO cells stably transfected with human 5-HT1A receptors.

5-HT transporter = target: T2, 5-HT transporter (Rattus norvegicus, UniProt P31652); test: Rat Brain 3H-Paroxetine Binding Assay (RB 5HT Transporter)
T2 construct: from tissue; host or cells: rat frontal cortex membranes (male Sprague-Dawley rats)
T2 sequence (P31652 whole entry): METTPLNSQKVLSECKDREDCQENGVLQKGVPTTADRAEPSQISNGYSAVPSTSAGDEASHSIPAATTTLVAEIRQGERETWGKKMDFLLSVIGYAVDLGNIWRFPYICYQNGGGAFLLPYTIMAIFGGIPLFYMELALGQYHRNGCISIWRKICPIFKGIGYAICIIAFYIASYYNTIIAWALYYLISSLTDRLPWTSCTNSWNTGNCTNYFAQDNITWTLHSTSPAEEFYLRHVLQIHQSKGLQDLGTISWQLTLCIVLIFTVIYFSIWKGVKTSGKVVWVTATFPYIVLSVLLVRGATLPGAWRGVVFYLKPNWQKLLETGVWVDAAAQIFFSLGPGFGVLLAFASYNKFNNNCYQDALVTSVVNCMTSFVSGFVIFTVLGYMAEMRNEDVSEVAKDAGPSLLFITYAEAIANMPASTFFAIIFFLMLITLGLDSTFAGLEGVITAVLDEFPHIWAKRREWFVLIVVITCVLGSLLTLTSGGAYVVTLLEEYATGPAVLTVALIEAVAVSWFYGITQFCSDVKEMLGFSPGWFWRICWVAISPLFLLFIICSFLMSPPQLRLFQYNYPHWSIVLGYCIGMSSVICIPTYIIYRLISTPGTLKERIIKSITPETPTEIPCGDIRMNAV
Description: Rat Brain ^3H-Paroxetine Binding Assay (RB 5HT Transporter):
This assay was used to determine a compound's affinity of the 5-HT transporter.
A protocol similar to that used by Cheetham et. al. (Neuropharmacol. 1993, 32, 737) was used. Briefly, frontal cortical membranes prepared from male S.D. rats were incubated with ^3H-parxetine (0.1 nM) for 60 min. at 25° C. All tubes also contained either vehicle, test compound (one to eight concentrations), or a saturating concentration of fluoxetine (10 μM) to define […]. All reactions are terminated by the addition of ice cold Tris buffer followed by rapid filtration using a Tom Tech filtration device to separate bound from free ^3H-paroxetine. Bound radioactivity was quantitated using a Wallac 1205 Beta Plate® counter. Nonlinear regression analysis was used to determine IC50 values which were converted to Ki values using the method of Cheng and Prusoff (Biochem. Pharmacol. 1973, 22, 3099);

Human 5-HT Transporter = target: T3, Human 5-HT Transporter (Homo sapiens, UniProt P31645); test: Inhibition of 3H-5-HT Uptake by cells Possessing the Human 5-HT Transporter (HC 5HT Transporter); type: cell-based
T3 construct: endogenous in cells; host or cells: Jar cells (human carcinoma), treated with staurosporine
T3 sequence (P31645 whole entry): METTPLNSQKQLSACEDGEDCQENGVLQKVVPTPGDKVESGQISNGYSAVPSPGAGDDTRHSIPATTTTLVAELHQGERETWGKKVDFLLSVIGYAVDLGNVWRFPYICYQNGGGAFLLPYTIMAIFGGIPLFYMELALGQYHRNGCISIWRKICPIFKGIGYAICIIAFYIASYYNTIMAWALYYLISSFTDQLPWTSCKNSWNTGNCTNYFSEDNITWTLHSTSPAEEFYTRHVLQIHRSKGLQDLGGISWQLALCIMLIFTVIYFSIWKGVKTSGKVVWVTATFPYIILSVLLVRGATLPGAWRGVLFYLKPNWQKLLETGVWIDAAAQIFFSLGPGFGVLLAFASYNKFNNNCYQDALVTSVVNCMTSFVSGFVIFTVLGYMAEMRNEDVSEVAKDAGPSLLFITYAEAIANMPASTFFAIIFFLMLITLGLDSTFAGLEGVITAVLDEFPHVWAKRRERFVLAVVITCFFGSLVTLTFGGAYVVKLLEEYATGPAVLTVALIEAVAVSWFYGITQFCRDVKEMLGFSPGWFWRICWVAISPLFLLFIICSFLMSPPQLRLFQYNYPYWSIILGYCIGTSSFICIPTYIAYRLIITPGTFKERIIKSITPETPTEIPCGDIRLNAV
Description: [Staurosporine greatly increases the expression of the 5-HT-transporter.] On the day of assay, vehicle, excess of fluoxetine, or test compound is added to various wells on the plate. All wells then receive ^3H-5-HT and are incubated at 37° C. for 5 min. The wells are then washed with ice cold 50 mM Tris HCl (pH 7.4) buffer and aspirated to remove free ^3H-5-HT. 25 μl of 0.25 M NaOH is then added to each well to lyse the cells and 75 μl scintillation cocktail (Microscint™ 20) added prior to quantitation on a Packard TopCount machine. Tubes with vehicle represent total possible uptake, radioactivity counted in tubes with fluoxetine represent nonspecific binding/uptake and is subtracted from the total possible uptake to give total possible specific uptake. This nonspecific binding (usual low in number) is then subtracted from the counts obtained in wells with various test compounds (or different concentrations of test drug) to give specific uptake in the presence of drug. Specific uptake is then expressed as a % of control values and is analyzed using nonlinear regression analysis (Prizm) to determine IC50 values. If the compound is active at inhibiting 5-HT uptake, its counts will be close to that obtained with fluoxetine.

[1] = Jar cells, 3H-5-HT uptake, read-out: HC 5HT Transporter IC50
[2] = [3H] 8-OH-DPAT displacement, CHO cells with human 5-HT1A receptors, read-out: 5-HT1A Ki
[3] = rat frontal cortical membranes, 3H-paroxetine, read-out: RB 5HT Transporter Ki

Compound | melting point [°C] | Ki (5-HT transporter) [nM] | IC50 (Human 5-HT Transporter; [1]) [nM] | Ki (human 5-HT1A receptors; [2]) [nM] | Ki (5-HT transporter; [3]) [nM] | inhibition at 1 µM (human 5-HT1A receptors) [%] | other results
O=c1n(CCCN2CC=C(c3c[nH]c4ccccc34)CC2)nc2ccccn12 | 173.3 |  |  |  |  |  | 
O=c1n(CCN2CC=C(c3c[nH]c4ccccc34)CC2)nc2ccccn12 | 170.4 |  |  |  |  |  | 
O=c1n(CCCCN2CC=C(c3c[nH]c4ccccc34)CC2)nc2ccccn12 | 123.2 |  |  |  |  |  | 
COc1cc2ncn(CCN3CC=C(c4c[nH]c5ccccc45)CC3)c(=O)c2cc1OC [Example 1, 3-[2-(4-(1H-indol-3-yl)-3,6-dihydro-1(2H)-pyridinyl)ethyl]-6-7-dimethoxy-4(3H)-quinazolinone] | 219 | 2.87 | 125 |  |  |  | Ki (human 5-HT1A receptors): 83.8 nM
COc1cc2ncn(CCN3CCC(c4c[nH]c5ccccc45)CC3)c(=O)c2cc1OC [Example 2, 3-{2-[4-(1H-indol-3-yl)-1-piperidinyl]ethyl}-6-7-dimethoxy-4(3H)-quinazolinone] | 230 |  | 273 | 72.1 | 36 |  | 
COc1cc2ncn(CCN3CC=C(c4c[nH]c5ccc(F)cc45)CC3)c(=O)c2cc1OC [Example 3, 3-[2-(4-(5-fluoro-1H-indol-3-yl)-3,6-dihydro-1(2H)-pyridinyl)ethyl]-6-7-dimethoxy-4(3H)-quinazolinone] | 210 |  |  | 82.2 | 4.57 |  | 
COc1cc2ncn(CCCCN3CC=C(c4c[nH]c5ccccc45)CC3)c(=O)c2cc1OC [Example 4, 3-[4-(4-(1H-indol-3-yl)-3,6-dihydro-1(2H)-pyridinyl)butyl]-6-7-dimethoxy-4(3H)-quinazolinone] |  | 1.25 | 132 | 215 |  |  | 
COc1cc2ncn(CCCCN3CCC(c4c[nH]c5ccccc45)CC3)c(=O)c2cc1OC [Example 5, 3-{4-[4-(1H-indol-3-yl)-1-piperdinyl]butyl}-6,7-dimethoxy-4(3H)-quinazolinone] |  |  | 55.3 | 86.8 | 4.12 |  | 
COc1cc2ncn(CCCN3CC=C(c4c[nH]c5ccccc45)CC3)c(=O)c2cc1OC [Example 6, 3-[3-(4-(1H-indol-3-yl)-3,6-dihydro-1(2H)-pyridinyl)propyl]-6-7-dimethoxy-4(3H)-quinazolinone] |  | 0.8 |  | 286 |  |  | IC50 (Human 5-HT Transporter): 43.2 nM
COc1cc2ncn(CCCN3CCC(c4c[nH]c5ccccc45)CC3)c(=O)c2cc1OC [Example 7, 3-{3-(4-(1H-indol-3-yl)-1-piperidinyl]propyl}-6-7-dimethoxy-4(3H)-quinazolinone] |  |  | 173 | 201 | 11 |  | 
COc1cc2ncn(CCCN3CC=C(c4c[nH]c5ccc(F)cc45)CC3)c(=O)c2cc1OC [Example 8, 3-[3-(4-(5-fluoro-1H-indol-3-yl)-3,6-dihydro-1(2H)-pyridinyl)propyl]-6-7-dimethoxy-4(3H)-quinazolinone] | 120 | 1.92 |  |  |  | 31 | 
O=c1c2cc(Cl)cc(Br)c2ncn1CCCN1CC=C(c2c[nH]c3ccccc23)CC1 [Example 9, 8-bromo-6-chloro-3-[3-(4-(1H-indol-3-yl)-3,6-dihydro-1(2H)-pyridinyl)propyl]-4(3H)-quinazolinone] | 192 | 0.31 |  |  |  | 4 | 
O=c1c2cc(Cl)ccc2ncn1CCCN1CC=C(c2c[nH]c3ccccc23)CC1 [Example 10, 6-chloro-3-[3-(4-(1H-indol-3-yl)-3,6-dihydro-1(2H)-pyridinyl)propyl]-4(3H)-quinazolinone] |  | 1.14 | 268 |  |  | 7 | 
O=c1c2cc(Cl)ccc2ncn1CCCN1CCC(c2c[nH]c3ccccc23)CC1 [Example 11, 6-chloro-3-{3-[4-(1H-indol-3-yl)-1-piperidinyl]propyl}-4(3H)-quinazolinone] |  |  | 1910 |  | 40 | 26 | 
O=c1c2ccccc2ncn1CCN1CC=C(c2c[nH]c3ccccc23)CC1 [Example 12, 3-[2-(4-(1H-indol-3-yl)-3,6-dihydro-1(2H)-pyridinyl)ethyl]-4(3H)-quinazolinone] |  |  | 88.1 | 38.2 | 5.5 |  | 
O=c1c2ccccc2ncn1CCN1CCC(c2c[nH]c3ccccc23)CC1 [Example 13, 3-{2-[4-(1H-indol-3-yl)-1-piperidinyl]ethyl}-4(3H)-quinazolinone] |  |  | 651 |  | 37 | 42 | 
Cn1cc(C2CCN(CCn3cnc4ccccc4c3=O)CC2)c2ccccc21 [Example 14, 3-{2-[4-(1-methyl-1H-indol-3-yl)-1-piperidinyl]ethyl}4-(3H)-quinazolinone] | 78 |  | 1480 |  | 116 | 43 | 
O=c1c2cc(F)ccc2ncn1CCN1CC=C(c2c[nH]c3ccccc23)CC1 [Example 15, 6-fluoro-3-{2-[4-(1H-indol-3-yl)-3,6-dihydro-1(2H)-pyridinyl]ethyl}-4(3H)-quinazolinone] | 138 | 19 | 159 |  |  | 44 | 
O=c1c2ccccc2nnn1CCN1CC=C(c2c[nH]c3ccccc23)CC1 [Example 16, 3-[2-(4-(1H-indol-3-yl)-3,6-dihydro-1(2H)-pyridinyl)ethyl]-1,2,3-benzotriazin-4(3H)-one] |  |  | 37.5 | 56.7 | 3.52 |  | 
O=c1c2ccccc2nnn1CCN1CCC(c2c[nH]c3ccccc23)CC1 [Example 17, 3-{2-[4-(1H-indol-3-yl)-1-piperidinyl)ethyl}-1,2,3-benzotriazin-4(3H)-one] |  |  | 190 | 119 | 16 |  | 
Cn1cc(C2CCN(CCn3nnc4ccccc4c3=O)CC2)c2ccccc21 [Example 18, 3-{2-[4-(1-methyl-1H-indol-3-yl)-1-piperidinyl]ethyl}-1,2,3-benzotriazin-4(3H)-one] |  |  | 231 | 80.9 | 21 |  | 
O=c1c2ccccc2nnn1CCCN1CC=C(c2c[nH]c3ccccc23)CC1 [Example 19, 3-[3-(4-(1H-indol-3-yl)-3,6-dihydro-1(2H)-pyridinyl)propyl]-1,2,3-benzotriazin-4(3H)-one] |  | 0.15 |  | 315 |  |  | IC50 (Human 5-HT Transporter): 15.7 nM
O=c1c2ccccc2nnn1CCCN1CCC(c2c[nH]c3ccccc23)CC1 [Example 20, 3-{3-[4-(1H-indol-3-yl)-1-piperidin]propyl}-1,2,3-benzotriazin-4(3H)-one] |  |  |  |  | 10 | 49 | 
Cn1cc(C2=CCN(CCCn3nnc4ccccc4c3=O)CC2)c2ccccc21 [Example 21, 3-[3-(4-(1-methyl-1H-indol-3-yl)-3,6-dihydro-1(2H)-pyridinyl)propyl]-1,2,3-benzotriazin-4(3H)-one] | 70 | 0.56 |  | 631 |  |  | 
O=c1n(CCCN2CCC(c3c[nH]c4ccccc34)CC2)nc2ccccn12 [Example 23, 2-{3-[4-(1H-Indol-3-yl)-piperidin-1-yl]-propyl}-2H-[1,2,4]triazolo[4,3-a]pyridin-3-one] | 111.7 |  |  |  |  |  | 
O=c1n(CCN2CCC(c3c[nH]c4ccccc34)CC2)nc2ccccn12 [Example 25, 2-{2-[4-(1H-Indol-3-yl)-piperidin-1-yl]-ethyl}-2H-[1,2,4]triazolo[4,3-a]pyridin-3-one] | 142 |  |  |  |  |  | 

From patent US7332506B2, “Substituted-3-indolyl-4-piperidino-alkyl heterocycles for the treatment of depression” (Wyeth, priority 2002, dated 2008)
